{"source": "patent US20030166301A1", "about": "“Multiple binding moiety chromatography device, methods of using and methods of making same” (priority 2001, published 2003)", "key": {"GABAA receptor [1]": {"target": "GABAA receptor", "settings": "rat brain membranes; read-out: Kd Standard; cited from earlier work"}, "GABAA receptor [2]": {"target": "GABAA receptor", "assay": "Frontal chromatography on MR-SP, marker (3H)-FTZ", "type": "binding, rat", "method": "(§1) Solubilization of rat brain tissue: All of the tissue from four rat brains was homogenized in 30 ml of Tris-HCl buffer (50 mM, pH 7.4) containing 5 mM EDTA, 3 mM benzamidine and 0.2 mM PMSF for 3×20 seconds using a Polytron homogenizer (Brinkman Instruments, Westbury, N.Y., USA) at setting 6. The mixture was kept in an ice bath for 20 seconds between each homogenization step to prevent excessive heating of the tissue. The homogenized brain tissue was centrifuged for 10 minutes at 4° C. at 35,000×g, and the supernatant was discarded. The pellet was suspended in 10 ml of Tris-HCl buffer (50 mM, pH 7.4) containing 100 mM NaCl, 2 mM MgCl2, 3 mM CaCl2, 5 mM KCl, 2% sodium cholate, and 10 μg/ml leupeptin. The resulting mixture was stirred for 12 hours at 4° C. and centrifuged at 35,000×g.\n(§2) Immobilization of solubilized receptors: The supernatant (receptor-cholate suspension) was mixed with 200 mg of dried IAM-PC packing material and stirred gently for 1 hour at 25° C., transferred into dialysis tubing, and dialyzed for 48 hours at 4° C. against 3×600 ml of Tris-HCl buffer (50 mM, pH 7.4) containing 5 mM EDTA, 100 mM NaCl, 0.1 mM CaCl2 and 0.1 mM PMSF. […]\n(§3) The value of Vmin can be determined by running (^3H)-EB in a series of concentration of drugs and plotting 1/(Vmax−V) versus 1/(drug) extrapolating to infinite (drug). […]"}, "Nicotinic Receptor": {"target": "Nicotinic Receptor", "settings": "read-out: Kd Standard, cited from earlier work"}, "NCT receptor": {"target": "NCT receptor (Rattus norvegicus, UniProt P09483+P12390)", "sequence (P12390 25-500)": "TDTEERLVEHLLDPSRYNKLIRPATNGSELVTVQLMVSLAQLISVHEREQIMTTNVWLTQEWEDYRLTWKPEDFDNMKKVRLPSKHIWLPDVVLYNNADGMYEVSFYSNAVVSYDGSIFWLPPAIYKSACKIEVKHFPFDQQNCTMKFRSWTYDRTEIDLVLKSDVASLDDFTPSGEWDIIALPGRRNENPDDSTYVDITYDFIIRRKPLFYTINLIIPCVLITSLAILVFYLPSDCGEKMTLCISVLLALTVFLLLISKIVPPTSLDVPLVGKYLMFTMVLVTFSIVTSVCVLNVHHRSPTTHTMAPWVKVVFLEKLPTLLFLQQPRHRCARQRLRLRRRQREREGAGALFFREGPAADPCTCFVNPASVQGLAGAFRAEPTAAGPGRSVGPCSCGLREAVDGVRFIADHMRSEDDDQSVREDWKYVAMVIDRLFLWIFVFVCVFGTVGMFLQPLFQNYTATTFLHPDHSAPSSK", "sequence (P09483 31-630)": "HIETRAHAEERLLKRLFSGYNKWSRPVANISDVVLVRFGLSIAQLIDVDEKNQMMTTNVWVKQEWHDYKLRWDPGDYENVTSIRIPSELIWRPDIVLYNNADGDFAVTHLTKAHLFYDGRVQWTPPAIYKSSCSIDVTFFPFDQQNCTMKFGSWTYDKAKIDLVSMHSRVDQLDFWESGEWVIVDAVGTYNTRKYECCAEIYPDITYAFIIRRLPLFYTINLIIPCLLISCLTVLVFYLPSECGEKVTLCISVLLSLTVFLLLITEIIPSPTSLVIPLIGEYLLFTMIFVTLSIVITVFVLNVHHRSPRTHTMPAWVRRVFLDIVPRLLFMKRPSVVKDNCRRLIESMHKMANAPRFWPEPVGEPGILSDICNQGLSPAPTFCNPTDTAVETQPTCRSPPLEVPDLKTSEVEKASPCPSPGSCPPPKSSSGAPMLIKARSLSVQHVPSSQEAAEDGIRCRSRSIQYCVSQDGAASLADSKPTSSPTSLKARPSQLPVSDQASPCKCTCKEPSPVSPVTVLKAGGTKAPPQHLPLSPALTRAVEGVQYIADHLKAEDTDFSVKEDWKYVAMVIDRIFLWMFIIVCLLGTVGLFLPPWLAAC", "type": "binding", "method": "as §1, §2, §3"}, "PGP": {"target": "PGP (Homo sapiens, UniProt P08183)", "sequence (P08183 whole entry)": "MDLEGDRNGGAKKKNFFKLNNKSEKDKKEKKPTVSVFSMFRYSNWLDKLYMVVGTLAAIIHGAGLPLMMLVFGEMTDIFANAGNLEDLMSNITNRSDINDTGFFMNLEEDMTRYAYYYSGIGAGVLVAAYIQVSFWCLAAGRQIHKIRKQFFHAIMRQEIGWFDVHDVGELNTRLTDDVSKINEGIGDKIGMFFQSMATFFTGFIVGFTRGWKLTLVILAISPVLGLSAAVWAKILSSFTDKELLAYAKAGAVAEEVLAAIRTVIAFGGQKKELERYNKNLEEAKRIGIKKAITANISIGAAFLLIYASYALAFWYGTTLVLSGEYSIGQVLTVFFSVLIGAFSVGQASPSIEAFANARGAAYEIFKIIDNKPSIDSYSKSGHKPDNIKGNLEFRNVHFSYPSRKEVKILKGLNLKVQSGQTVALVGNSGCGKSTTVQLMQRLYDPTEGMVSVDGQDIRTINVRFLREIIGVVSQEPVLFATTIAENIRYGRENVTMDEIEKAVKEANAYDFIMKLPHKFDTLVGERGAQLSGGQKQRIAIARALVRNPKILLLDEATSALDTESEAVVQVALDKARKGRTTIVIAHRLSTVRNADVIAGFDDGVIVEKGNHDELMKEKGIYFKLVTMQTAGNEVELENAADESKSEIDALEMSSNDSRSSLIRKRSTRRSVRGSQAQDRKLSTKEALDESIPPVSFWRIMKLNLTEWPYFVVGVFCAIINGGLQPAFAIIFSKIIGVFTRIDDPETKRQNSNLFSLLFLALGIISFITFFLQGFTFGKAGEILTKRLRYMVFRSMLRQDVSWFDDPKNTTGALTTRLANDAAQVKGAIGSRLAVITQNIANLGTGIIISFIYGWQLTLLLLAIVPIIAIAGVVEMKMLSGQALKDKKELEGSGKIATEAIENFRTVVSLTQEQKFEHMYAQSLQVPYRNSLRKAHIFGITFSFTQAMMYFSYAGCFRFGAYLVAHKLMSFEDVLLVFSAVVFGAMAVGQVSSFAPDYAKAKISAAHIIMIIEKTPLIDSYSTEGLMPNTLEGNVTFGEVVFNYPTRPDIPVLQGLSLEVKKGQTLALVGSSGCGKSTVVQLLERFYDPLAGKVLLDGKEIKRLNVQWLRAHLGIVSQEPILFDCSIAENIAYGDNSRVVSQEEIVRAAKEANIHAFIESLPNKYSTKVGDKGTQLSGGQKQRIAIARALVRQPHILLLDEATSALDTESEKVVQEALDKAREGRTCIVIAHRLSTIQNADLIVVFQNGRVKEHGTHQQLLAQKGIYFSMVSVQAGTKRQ", "assay": "Frontal chromatography on open tubular PGP column (PGP-OTB)", "method": "Preparation of open tubular capillary: A 25 cm×100 u ID capillary was cleaned with 0.5 N NaOH running through for 40 minutes at low pressure followed by water for 20 minutes. Then placed in the oven at 95° C. for 30 minutes. Then APTS (90 parts water: 10 parts APTS) was run through the column for 5 minutes at high pressure and placed in the oven for 30 minutes. This was repeated and left overnight. The following morning, a 1% gluteraldehyde solution in PBS was then run through at high pressure for 30 minutes followed by air. Then avidin (10 mg in 4 mL 50 mM PBS) was run through for 3 minutes at high pressure. Then both tips were submerged in the avidin solution overnight at 4° C. It was determined at this stage that the column needs to be washed for 4-6 hours at 50 ul/min with Tris buffer prior to continuing to the next stage. The purpose being to remove any unbound avidin. A frontal study using a 5 mL sample of 0.5 nM ^3H-Vinblastin (RM062702002) was carried out to determine if vinblastin had specific binding to avidin.\nSubsequently, a solution of 14 mM BioX (15 mg of BioX in 1 mL DMSO) was run through the column at high pressure for 10 minutes and left in the solution for 48 hours. A frontal study of 0.5 nM ^3H-Vinblastin (5 mL) was carried out on the BiotinX-Avidin labeled OT column to determine if any interactions between vinblastin and biotin could be seen. […]"}}, "note": "Where “and” joins values, the source holds several entries; their conditions need not be identical. Identical values can stand only once. Like-named read-outs stand apart in the source and are kept apart here.", "data": [{"smiles": "CN1C(=O)CN=C(c2ccccc2)c2cc(Cl)ccc21", "note": "[Diazepam]", "values": [{"measurement": "Kd", "setting": "GABAA receptor [1]", "result": 1.3, "unit": "nM"}, {"measurement": "Kd", "setting": "GABAA receptor [2]; MR-SP from rat brain, 25 pM (3H)-FTZ marker, Tris-HCl 50 mM pH 7.4", "result": 1, "unit": "nM"}]}, {"smiles": "Clc1ccc(C2CC3CCC2N3)cn1", "note": "(stereo not shown) [Epibatidine]", "values": [{"measurement": "Kd", "setting": "Nicotinic Receptor; rat brain membranes", "result": 0.05, "unit": "nM"}]}, {"smiles": "CN[C@H](CC(=O)O)C(=O)O", "note": "[NMDA, N-methyl D-aspartate]", "values": [{"measurement": "Displacement of (3H)-MK-801", "setting": "NMDA receptor; displacer 1 mM to 2 mM in chromatographic buffer", "result": "able to specifically displace"}, {"measurement": "Kd", "setting": "NMDA receptor; read-out: Kd Frontal, MR-SP, 2 nM (3H)-MK-801 marker, 1 μM L-glutamate and 1 μM glycine, two determinations (FIG. 2A, 2B)", "result": "1.2 nM and 0.6 nM"}]}, {"smiles": "CN1CCCC1c1cccnc1", "note": "(stereo not shown) [Nicotine]", "values": [{"measurement": "Kd", "setting": "Nicotinic Receptor", "result": 0.8, "unit": "nM"}, {"measurement": "Effect on elution (breakthrough) volume of 60 pM (3H)-EB", "setting": "NCT receptor", "result": "reduction in the breakthrough volume"}, {"measurement": "Effect on elution volume of 25 pM (3H)-FTZ", "setting": "GABAA receptor [2]; ligand at 1 μM in mobile phase", "result": "no decrease in the elution volume"}]}, {"smiles": "CC[C@]1(O)C[C@@H]2CN(CCc3c([nH]c4ccccc34)[C@@](C(=O)OC)(c3cc4c(cc3OC)N(C)[C@H]3[C@@](O)(C(=O)OC)[C@H](OC(C)=O)[C@]5(CC)C=CCN6CC[C@]43[C@@H]65)C2)C1", "note": "[Vinblastin]", "values": [{"measurement": "Bmax (binding sites on the PGP-OTB column)", "setting": "PGP; not told", "result": 3, "unit": "mmol"}, {"measurement": "Kd", "setting": "PGP; read-out: Kd for the PGP-OTB column, 0.5 nM 3H-Vinblastin marker, r2 0.902", "result": 97, "unit": "nM"}]}]}
